Results: ChEMBL document CHEMBL5726107, “Histone demethylase inhibitors” (2017)

Experiments:
[1] = target: Lysine-specific demethylase 5A (Homo sapiens, UniProt P29375); test: Enzymatic Assay: The enzymatic assay of Jarid1A activity is based upon Time Resolved-Fluorescence Resonance Energy Transfer (TR-FRET) detection. […] The reaction mixture was incubated at room temperature for 30 minutes, and terminated by the addition of 6 μl of 5 mM EDTA in LANCE detection buffer containing 50 nM Phycolink Streptavidin-allophycocyanin and 2 nM Europium-anti-H3K4me1-2 antibody.
Lysine-specific demethylase 5A, sequence (P29375 whole entry): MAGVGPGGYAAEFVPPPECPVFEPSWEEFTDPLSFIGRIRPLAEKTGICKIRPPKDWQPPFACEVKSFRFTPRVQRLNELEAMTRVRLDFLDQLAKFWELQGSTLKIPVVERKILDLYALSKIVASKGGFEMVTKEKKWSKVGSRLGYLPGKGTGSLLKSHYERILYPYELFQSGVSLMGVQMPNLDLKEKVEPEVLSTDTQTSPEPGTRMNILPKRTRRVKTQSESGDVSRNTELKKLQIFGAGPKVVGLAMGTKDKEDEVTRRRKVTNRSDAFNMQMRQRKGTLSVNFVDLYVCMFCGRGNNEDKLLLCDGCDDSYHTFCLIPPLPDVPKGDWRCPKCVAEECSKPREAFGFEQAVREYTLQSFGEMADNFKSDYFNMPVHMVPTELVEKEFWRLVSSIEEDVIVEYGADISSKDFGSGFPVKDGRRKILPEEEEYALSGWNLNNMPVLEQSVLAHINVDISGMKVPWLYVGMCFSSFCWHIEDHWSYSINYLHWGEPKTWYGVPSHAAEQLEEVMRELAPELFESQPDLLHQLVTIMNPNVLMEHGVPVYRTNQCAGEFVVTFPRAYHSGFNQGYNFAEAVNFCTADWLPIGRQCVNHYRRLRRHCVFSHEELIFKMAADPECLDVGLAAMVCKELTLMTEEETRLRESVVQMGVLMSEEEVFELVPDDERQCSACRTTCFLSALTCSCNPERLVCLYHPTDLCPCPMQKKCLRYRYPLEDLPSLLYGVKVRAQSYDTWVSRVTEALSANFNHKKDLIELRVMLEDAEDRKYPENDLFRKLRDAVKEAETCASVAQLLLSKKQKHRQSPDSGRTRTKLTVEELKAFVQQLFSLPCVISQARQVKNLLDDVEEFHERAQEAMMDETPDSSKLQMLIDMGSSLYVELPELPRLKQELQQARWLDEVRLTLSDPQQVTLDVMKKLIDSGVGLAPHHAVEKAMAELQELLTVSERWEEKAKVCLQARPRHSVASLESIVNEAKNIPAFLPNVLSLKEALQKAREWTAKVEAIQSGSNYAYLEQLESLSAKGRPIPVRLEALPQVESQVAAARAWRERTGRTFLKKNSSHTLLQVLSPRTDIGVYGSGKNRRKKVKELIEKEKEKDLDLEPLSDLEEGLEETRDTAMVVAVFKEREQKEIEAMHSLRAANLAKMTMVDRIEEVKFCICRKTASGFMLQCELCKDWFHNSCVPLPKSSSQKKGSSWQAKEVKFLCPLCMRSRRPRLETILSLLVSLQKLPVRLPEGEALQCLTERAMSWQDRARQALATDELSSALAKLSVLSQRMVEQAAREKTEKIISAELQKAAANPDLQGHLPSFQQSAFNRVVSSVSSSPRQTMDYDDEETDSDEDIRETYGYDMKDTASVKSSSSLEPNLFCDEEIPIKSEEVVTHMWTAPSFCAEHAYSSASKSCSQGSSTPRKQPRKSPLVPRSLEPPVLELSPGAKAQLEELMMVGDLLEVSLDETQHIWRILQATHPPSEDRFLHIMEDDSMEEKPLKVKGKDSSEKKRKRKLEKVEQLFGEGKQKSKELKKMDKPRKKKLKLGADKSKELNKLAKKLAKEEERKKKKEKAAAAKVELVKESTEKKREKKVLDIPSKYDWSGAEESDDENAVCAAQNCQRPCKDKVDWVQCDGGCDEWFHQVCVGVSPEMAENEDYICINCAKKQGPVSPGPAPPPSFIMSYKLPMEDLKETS

[2] = target: Lysine-specific demethylase 5B (Homo sapiens, UniProt Q9UGL1); test: The reaction mixture was incubated at room temperature for 30 minutes, and terminated by the addition of 6 μl of 5 mM EDTA in LANCE detection buffer containing 50 nM Phycolink Streptavidin-allophycocyanin and 2 nM Europium-anti-H3K4me1-2 antibody.
Lysine-specific demethylase 5B, sequence (Q9UGL1 whole entry): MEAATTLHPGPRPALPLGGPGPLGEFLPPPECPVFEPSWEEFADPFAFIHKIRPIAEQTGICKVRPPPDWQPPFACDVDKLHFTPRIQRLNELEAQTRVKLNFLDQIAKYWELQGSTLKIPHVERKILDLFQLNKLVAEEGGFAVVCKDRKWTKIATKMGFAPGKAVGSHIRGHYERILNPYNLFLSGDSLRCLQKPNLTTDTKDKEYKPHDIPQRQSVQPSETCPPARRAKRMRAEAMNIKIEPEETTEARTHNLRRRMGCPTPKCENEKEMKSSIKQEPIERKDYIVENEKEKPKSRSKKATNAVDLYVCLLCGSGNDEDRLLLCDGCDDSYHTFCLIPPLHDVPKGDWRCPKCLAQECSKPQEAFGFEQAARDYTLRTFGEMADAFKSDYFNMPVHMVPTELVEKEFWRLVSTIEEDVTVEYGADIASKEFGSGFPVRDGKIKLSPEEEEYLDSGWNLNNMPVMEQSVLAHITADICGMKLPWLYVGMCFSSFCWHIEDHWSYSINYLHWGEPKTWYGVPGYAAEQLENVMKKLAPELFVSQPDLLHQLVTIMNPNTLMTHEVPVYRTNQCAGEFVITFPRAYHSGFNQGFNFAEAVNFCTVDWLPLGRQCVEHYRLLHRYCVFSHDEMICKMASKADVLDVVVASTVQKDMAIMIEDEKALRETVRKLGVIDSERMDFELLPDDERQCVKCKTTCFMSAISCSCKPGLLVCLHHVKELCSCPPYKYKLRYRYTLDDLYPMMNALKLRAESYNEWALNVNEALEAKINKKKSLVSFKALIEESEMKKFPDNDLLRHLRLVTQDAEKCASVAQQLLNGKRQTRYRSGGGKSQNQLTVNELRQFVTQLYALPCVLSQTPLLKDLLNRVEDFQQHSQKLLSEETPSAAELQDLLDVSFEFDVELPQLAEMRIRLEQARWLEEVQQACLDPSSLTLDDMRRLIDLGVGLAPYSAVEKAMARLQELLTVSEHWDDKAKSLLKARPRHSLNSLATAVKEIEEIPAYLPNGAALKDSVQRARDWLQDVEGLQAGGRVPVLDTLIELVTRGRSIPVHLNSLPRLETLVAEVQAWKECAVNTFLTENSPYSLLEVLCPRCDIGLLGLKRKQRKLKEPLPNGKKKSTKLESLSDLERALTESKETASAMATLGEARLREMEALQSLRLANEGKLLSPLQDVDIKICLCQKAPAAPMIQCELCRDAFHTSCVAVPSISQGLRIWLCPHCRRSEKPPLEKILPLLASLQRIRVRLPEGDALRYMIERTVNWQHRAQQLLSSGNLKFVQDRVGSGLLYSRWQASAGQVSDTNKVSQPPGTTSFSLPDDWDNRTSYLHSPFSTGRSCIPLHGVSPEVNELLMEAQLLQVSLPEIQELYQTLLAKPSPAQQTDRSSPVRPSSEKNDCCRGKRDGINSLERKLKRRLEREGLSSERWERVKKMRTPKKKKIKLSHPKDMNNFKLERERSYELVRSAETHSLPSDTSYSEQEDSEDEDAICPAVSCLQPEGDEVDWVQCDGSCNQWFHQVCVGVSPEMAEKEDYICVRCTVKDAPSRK

**Q.** For `CCCn1nc(Nc2cnccc2C(=O)O)c2cccc(C)c21`, which IC50 [1] is on record?
**A.** < 100 nM

**Q.** And the IC50 [2]?
**A.** < 100 nM
